# Test results from EP0504807B1, “Use of bis-(p-hydroxyphenylthio)methane derivatives to inhibit progressive development of insulin-dependent diabetes mellitus” (MERRELL PHARMACEUTICALS INC., priority 1991, dated 1992).
# Columns and labels:
# [1] = system: Female NOD mice; assay: Prevention of the progressive development of IDDM in the NOD mouse (incidence of diabetes by urine glucose and plasma glucose); format: in vivo
# From the text: The non-obese diabetic (NOD) mouse has a genetic predisposition to developing IDDM, particularly among the females. Diabetes begins to appear at 12-14 weeks of age and by 30-36 weeks of age about 75-85% of female NOD's will have developed IDDM. As such, the NOD mouse provides a standard experimental model for IDDM in man which is well known and appreciated by those skilled in the art [see Lampeter, et al: Diabetologia 32, 703 (1989)]. The effect of experimental agents on the NOD mouse can thus be studied to determine whether these agents are active in inhibiting the development of diabetes.
# Female NOD mice were maintained on standard laboratory rodent feed containing either 0% (Control Group) or 1% bis(3,5-di-tertiary-butyl-4-hydroxyphenylthio)methane (Treated Group) as an admixture. The mice were started on these diets at 4 weeks of age and continued until they were 24 weeks old. Each mouse was tested for diabetes at 8, 12, 14, 16, 18, 20, 22 and 24 weeks of age. Diabetic mice were detected by a positive urine glucose measurement and were confirmed by a plasma glucose level greater than 300 mg/dL. Urine glucose was determined using Diastix™ reagent strips for urinalysis (Miles Inc., Diagnostics Division, Elkhart, IN) and plasma glucose using Glucose (GDH Endpoint) Reagent™ (Seradyn, Inc., Indianapolis, IN).
# Mice were counted as diabetic if a positive urine glucose and plasma glucose greater than 300 mg/dL were determined on 3 consecutive measurements. If mice were determined to be diabetic for 1 or 2 consecutive measurements and then died with physical indications of IDDM such as severe weight loss, these mice were also counted as diabetic.
# At 24 weeks of age, 30 of 61 mice in the Control Group (49%) had become diabetic compared to 2 of 51 mice in the Treated Group (4%).
# The treated, nondiabetic mice (N=38) not sacrificed at 24 weeks of age were switched to control diet and monitored, along with the 21 remaining controls, for 24 more weeks. During this period, 13 of 21 (62%) controls and 13 of 38 (34%) previously treated mice developed diabetes (p=0.04). Combining the two 24 week study periods, the percentage of mice that developed diabetes among the controls was 81% (51% of the controls were nondiabetic after 24 weeks of study and 38% of these were still nondiabetic after 24 more weeks for an overall total of 19% nondiabetic control animals). Among the group treated for 24 weeks the percentage of mice that developed diabetes after 48 weeks of study was 37% (96% were nondiabetic after 24 weeks and 66% of these were still nondiabetic 24 weeks after stopping treatment).
# [2] = system: Female NOD mice; assay: Pancreatic histopathology of NOD mice at 24 weeks of age (hematoxylin and eosin, immunoperoxidase for insulin); format: in vivo, NOD mouse; settings: 1% in feed
# From the text: At 24 weeks of age, randomly selected control (N=10) and treated (N=10) nondiabetic mice and all surviving diabetic control (N=15) and treated (N=1) mice were sacrificed. Pancreata were collected and stored in formalin, processed, embedded, and sectioned by standard histological methods. Sections stained with hemotoxylin and eosin or by immunoperoxidase for insulin (as a marker for the presence of β-cells) were examined light microscopically. […]
# [3] = Clinical Status Diabetic, 1 mouse
# [4] = Clinical Status Nondiabetic, 10 mice
smiles,measurement,setting,value
"CC(C)(C)c1cc(SCSc2cc(C(C)(C)C)c(O)c(C(C)(C)C)c2)cc(C(C)(C)C)c1O [Bis(3,5-di-tertiary-butyl-4-hydroxyphenylthio)methane]",percentage of mice that developed diabetes,"[1]; after 48 weeks of study, group treated for 24 weeks, two 24 week periods combined, controls 81%",37%
same,treated mice nondiabetic,"[1]; at 24 weeks of age / after 24 weeks of study, 1% in feed, controls 51%",96%
same,mice that had become diabetic,"[1]; at 24 weeks of age, 1% in feed as an admixture from 4 to 24 weeks of age, Control Group 30 of 61",2 of 51
same,mice that had become diabetic (percentage),"[1]; at 24 weeks of age, 1% in feed from 4 to 24 weeks of age, Control Group 49%",4%
same,still nondiabetic 24 weeks after stopping treatment,"[1]; of the mice nondiabetic after 24 weeks of treatment, controls 38%",66%
same,previously treated mice that developed diabetes,"[1]; treated nondiabetic mice switched to control diet at 24 weeks of age, monitored 24 more weeks, controls 13 of 21, p=0.04",13 of 38
same,previously treated mice that developed diabetes (percentage),"[1]; treated nondiabetic mice switched to control diet at 24 weeks of age, monitored 24 more weeks, controls 62%, p=0.04",34%
same,Atrophy,[2]; [3],1 number of mice
same,Insulitis,[2]; [3],1 number of mice
same,β-Cells Present,[2]; [3],1 number of mice
same,Atrophy,[2]; [4],2 number of mice
same,Insulitis,[2]; [4],9 number of mice
